We go through ten molecules from patent US20040110963A1, “Novel hydrazones” (priority 2001, published 2004).

Values after ≈ are worked out from the molar mass of the structure shown.

For assay [1], the system named is Staphylococcus aureus ATCC25923. In words: In vitro antibacterial activity (MIC, NCCLS M7-A5 dilution susceptibility test). The following applies: for MIC: read-out: Minimum Inhibitory Concentration (MIC) Staphylococcus aureus ATCC25923. It is filed as cell-based. The procedure: (§1) Antimicrobial susceptibility testing was performed in accordance with the National Committee for Clinical Laboratory Standards (NCCLS) procedure [M7-A5, 2001: Methods for Dilution Antimicrobial Susceptibility Tests for Bacteria That Grow Aerobically; Approved Standard-Fifth Edition American National Standard].

The test system of assay [2] is Staphylococcus aureus 101. Described as above. It is filed as cell-based. The following applies: for MIC: read-out: Minimum Inhibitory Concentration (MIC) Staphylococcus aureus 101. On the procedure: as §1
In a further assay the test system is Escherichia coli DC2. The assay is described as above. It is filed as cell-based. The note with it: for MIC: read-out: Minimum Inhibitory Concentration (MIC) Escherichia coli DC2. On the procedure:
as §1

Assay [3] deals with enzyme I of the bacterial phosphotransferase system (PTS) (Escherichia coli, UniProt P08839). In words: Assay for Enzyme I dependent PEP: peptide phosphotransferase activity (LDH-coupled, NADH read-out at 340 nm). The following applies: enzyme I 0.75 μM, 0.8 mM PEP, pH 7.5; read-out: Inhibition of PTS (IC50 in μM). It is filed as biochemical. From the text: The determination of activity of a compound of the present invention in the PTS may be summarized as follows:
Assay for Enzyme I Dependent PEP:
Peptide Phosphotransferase Activity. [formula]
To find inhibitors of Enzyme I of the PTS by high throughput screening, an in vitro assay based on spectrophotometric read out at 340 nm has been set up. The assay comprises of three major components, purified enzyme I in catalytic amounts, Phosphoenol Pyruvate (PEP) as the phosphoryl donor substrate and purified HPr as the phosphoryl acceptor substrate.
The assay couples the formation of pyruvate formed from PEP to lactate, catalyzed by lactate dehydrogenase. The disappearance of NADH, cofactor required by lactate dehydrogenase, is determined spectrophotometerically at 340 nm. The assay is done in a U-shaped microtiter plate format, and quantitation is done using microplate absorbance reader.
100 μl reaction mixture contained 0.8 mM PEP, 0.2 mM NADH, 3 μg lactate dehydrogenase (Boehringer Mannheim), 50 mM KPi pH=7.5, 2.5 mM dithiothreitol, 2.5 mM NaF, 5 mM MgCI2, and between 50 and 100 μM of the compound. The reaction is started by the addition of enzyme I (final concentration 0.75 μM). In a control experiment the compound is replaced by DMSO.

With `O=C(NN=Cc1ccc(O)c(O)c1O)c1ccc(Cl)c(C(F)(F)F)c1` [Example 45, 4-Chloro-3-trifluoromethyl-N′-(2,3,4-trihydroxy-benzylidene)-benzohydrazide], the values for the MIC (in assay [1]; in assay [2]; in the assay with Escherichia coli DC2) were 0.5 µg/mL (≈ 1.33 µM), 1 µg/mL (≈ 2.67 µM) and 2 µg/mL (≈ 5.34 µM), respectively.
For `COc1ccc(C(=O)NN=Cc2ccc(O)c(O)c2O)cc1` [Example 39, 4-Methoxy-N′-(2,3,4-trihydroxy-benzylidene)-benzohydrazide], in that order: 64 µg/mL (≈ 212 µM), 64 µg/mL (≈ 212 µM) and 64 µg/mL (≈ 212 µM).
For `O=C(NN=Cc1ccc(O)c(O)c1O)c1cccc(Cl)c1-n1cccc1` [Example 42, 3-Chloro-2-pyrrol-1-yl-N′-(2,3,4-trihydroxy-benzylidene)-benzohydrazide], in that order: 32 µg/mL (≈ 86.1 µM), 32 µg/mL (≈ 86.1 µM) and 128 µg/mL (≈ 344 µM).
For `O=C(NN=Cc1cc(Cl)cc(Cl)c1O)c1cccc(Cl)c1-n1cccc1` [Example 43, 3-Chloro-2-pyrrol-1-yl-N′-(2-hydroxy-3,5-dichloro-benzylidene)-benzohydrazide], in that order: 2 µg/mL (≈ 4.89 µM), 2 µg/mL (≈ 4.89 µM) and above 128 µg/mL.
In the case of `O=C(NN=Cc1cccc(O)c1O)c1ccc(Cl)c(Cl)c1` [Example 40, 3,4-Dichloro-N′-(2,3-dihydroxy-benzylidene)-benzohydrazide], the MIC in assay [1] was 4 µg/mL (≈ 12.3 µM); in assay [2] it was 4 µg/mL (≈ 12.3 µM); in the assay with Escherichia coli DC2 it was above 128 µg/mL.
As for `O=C(NN=Cc1cc(Cl)cc(Cl)c1O)c1ccc(Cl)c(C(F)(F)F)c1` [Example 46, 4-Chloro-3-trifluoromethyl-N′-(2-hydroxy-3,5-dichloro-benzylidene)-benzohydrazide], the MIC in assay [1] is 128 µg/mL (≈ 311 µM); in assay [2], 128 µg/mL (≈ 311 µM); in the assay with Escherichia coli DC2 it was above 128 µg/mL.
For `O=C(NN=Cc1cc(Cl)ccc1O)c1cccc(C(F)(F)F)c1` [Example 21, 3-Trifluoromethyl-N′-(5-chloro-2-hydroxy-benzylidene)-benzohydrazide], the figures for the MIC (in assay [1]; in the assay with Escherichia coli DC2) were 16 µg/mL (≈ 46.7 µM) and above 128 µg/mL, respectively. In addition, the IC50 in assay [3] turned out to be 12 µM.
Regarding `O=C(NN=Cc1cc(O)c(O)cc1O)c1ccccc1-n1cccc1` [Example 44, 2-Pyrrol-1-yl-N′-(2,4,5-trihydroxy-benzylidene)-benzohydrazide], the MIC in assay [1] came to 64 µg/mL (≈ 190 µM); in assay [2], 64 µg/mL (≈ 190 µM); with Escherichia coli DC2 it was 128 µg/mL (≈ 379 µM).
`O=C(NN=Cc1cc(O)ccc1O)c1ccc(Cl)cc1` [Example 10, 4-Chloro-N′-(2,5-dihydroxy-benzylidene)-benzohydrazide]: the MIC in assay [1] is 128 µg/mL (≈ 440 µM); in the assay with Escherichia coli DC2 it was above 128 µg/mL. Besides, in assay [3], the IC50 came to 8 µM.
Turning to “3,5-Bis-(trifluoromethyl)-N′-(2,3,4-trihydroxy-benzylidene)-benzohydrazide [Example 41]”, the “Minimum Inhibitory Concentration (MIC) Staphylococcus aureus ATCC25923” value in assay [1] came out at 64 micrograms/ml. Also, in assay [2], the “Minimum Inhibitory Concentration (MIC) Staphylococcus aureus 101” value was determined as 64 micrograms/ml. Moreover, the “Minimum Inhibitory Concentration (MIC) Escherichia coli DC2” value in the assay with Escherichia coli DC2 is “na (na means not active at concentrations less than 128 μg/ml)”.

The IC50 is the point on the concentration scale where inhibition reaches its midpoint.
